Test system: Adult human dermal fibroblasts
Assay: Collagen type I in human dermal fibroblast conditioned media
Type: cell-based
Conditions: MAP 100 ug/ml; Vit. C 10 ug/ml; FIG. 1
Method: Adult human dermal fibroblasts (facial cells, from Cell Applications, Inc. San Diego, Calif., Catalog #106-05A, Lot 1339) were incubated for seventy-two hours in Fibroblast Growth Serum (Cell Applications, cat. #116-500). Four test formulations, each formulation used at three final test sample dilutions of 2.5%, 0.5% and 0.05%, were added to the incubated cells. All concentrations expressed in weight/weight unless otherwise noted: • (i) Test Formulation #1, CHL-01-057 (labeled “1”) served as a control and contained 90% purified water and 10% butylene glycol; • (ii) Test Formulation #2, CHL-01-053 (labeled “2”) containing 0.2% of 1-Disodium Copper Chlorin E4 in 10% butylene glycol and 89.8% purified water; • (iii) Test Formulation #3, (labeled #3) CHL-01-0 51 containing 0.2% Sodium Copper Chlorophyllin complex, USP in 10% butylene glycol and 89.8% purified water; • (iv) Test Formulation #4, CHL-01-055 (labeled “4”) containing 0.2% Sodium Zinc Chlorophyllin in 10% butylene glycol and 89.8% purified water. Based on the final dilutions, the amount of chlorin, chlorophyllin, or control compound added to the cell culture was 50 ppm, 10 ppm, and 1 ppm (ppm=parts per million by weight). Each of the above formulations was prepared by adding butylene glycol to water and mixing on a heating plate with a magnetic stirrer until the glycol fully dissolved. […]

Structure (SMILES): O=C1O[C@H]([C@@H](O)CO)C([O-])=C1OP(=O)([O-])[O-].O=C1O[C@H]([C@@H](O)CO)C([O-])=C1OP(=O)([O-])[O-].[Mg+2].[Mg+2].[Mg+2] [Magnesium Ascorbyl Phosphate, magnesium ascorbyl phosphate]
- stimulatory activity on type 1 collagen production (positive controls): strong stimulatory activity

Structure (SMILES): O=C1O[C@H]([C@@H](O)CO)C(O)=C1O [vitamin C, ascorbic acid]
- stimulatory activity on type 1 collagen production (positive controls): strong stimulatory activity
